Values after ≈ are worked out from the molar mass of the structure shown.

The assay relates to HepG2. The assay is described as follows: Cytotoxicity against human HepG2 cells by MTT assay. It counts as functional, cell-based.
A word on the IC50: it is the concentration needed to halve the response being measured. Read a low IC50 as greater potency. Consider `COc1ccc([C@@H]2C[C@@H]3O[C@H]4[C@H](Oc5c(C)c(O)c(C)c(c53)O2)O[C@H](CO)[C@@H](O)[C@@H]4O)cc1` [ABACOPTERIN C], for which the midpoint of inhibition, the IC50, lay at 4 µg/mL (≈ 8.69 µM). In turn, `COc1ccc([C@@H]2C[C@@H]3O[C@H]4[C@H](Oc5c(C)c(O)c(C)c(c53)O2)O[C@H](COC(C)=O)[C@@H](O)[C@@H]4O)cc1` yielded an IC50 of 3.5 µg/mL (≈ 6.96 µM). Compound `COc1ccc([C@@H]2C[C@@H]3O[C@H]4[C@H](Oc5c(C)c(O)c(C)c(c53)O2)O[C@H](CO)[C@@H](O)[C@@H]4OC(C)=O)cc1` showed a half-maximal inhibitory concentration (IC50) of 4.1 µg/mL (≈ 8.16 µM). This IC50 and that of the compound before are within 1.5-fold of each other.

`COc1ccc([C@@H]2C[C@@H](O)c3c(c(C)c(O[C@@H]4O[C@H](CO)[C@@H](O)[C@H](O)[C@H]4O)c(CO)c3O[C@@H]3O[C@H](CO)[C@@H](O)[C@H](O)[C@H]3O)O2)cc1` [TRIPHYLLIN A] returned an IC50 of 5.7 µg/mL (≈ 8.68 µM). This IC50 and that of the compound before are within 1.5-fold of each other. The result for `COc1ccc([C@@H]2C[C@@H](O)c3c(c(C)c4c(c3O[C@@H]3O[C@H](CO)[C@@H](O)[C@H](O)[C@H]3O)CO[C@H]3[C@H](O4)O[C@H](CO)[C@@H](O)[C@@H]3O)O2)cc1` reads 3.1 µg/mL (≈ 4.85 µM); that for `O=c1[nH]cc(F)c(=O)[nH]1` [FLUOROURACIL], 1.3 µg/mL (≈ 9.99 µM).

The values above are taken from ChEMBL document CHEMBL1157255, “Flavan-4-ol Glycosides from the Rhizomes of Abacopteris penangiana” (J Nat Prod, 2006).
